Values quoted from earlier work in patent US20230157963A1, “SOLID ORAL BEADS OF FUNCTIONAL INGREDIENTS AND METHODS OF MAKING THE SAME” (Nulixir Inc., priority 2021, published 2023).

Conditions: categorization at pH=7 unless stated otherwise; reference phases water and n-octanol

Compound | log P
COc1cc2c(c(OC)c1OC)-c1c(cc3c(c1OC)OCO3)CC(C)C(C)C2 (single isomer, unassigned; (-)) [(−)-schisandrin B] | ~4
COc1cc(/C=C/c2ccccc2)oc(=O)c1 [5,6-dehydrokawain] | ~2.9
COC1=CC(=O)OC(/C=C/c2ccc(OC)cc2)C1 (stereo not drawn) [5,6-dihydroyangonin] | ~2.5
CC1=C(CO)C(=O)O[C@@H]([C@@H](C)[C@H]2CC[C@H]3[C@@H]4C[C@H](Cl)[C@]5(O)[C@@H](O)C=CC(=O)[C@]5(C)[C@H]4CC[C@]23C)C1 [6a-chloro-5b-hydroxywithaferin A] | ~3.2
COC1=CC(=O)O[C@@H](CCc2ccc3c(c2)OCO3)C1 [7,8-dihydromethysticin] | ~2.2
COc1ccc(CCc2cc(OC)cc(=O)o2)cc1 [7,8-dihydroyangonin] | ~2.9
COc1cc(/C=C\c2ccc(OC)c(O)c2)oc(=O)c1 [11-hydroxyyangonin] | ~2.2
COc1cc2c(c(OC)c1OC)-c1c(cc(OC)c(OC)c1OC)C[C@](C)(O)[C@@H](C)C2 [(+)-schisandrin] | ~5
COc1cc2c(c(OC)c1OC)-c1c(cc(OC)c(OC)c1OC)C[C@H](C)[C@H](C)C2 [(−)-schisandrin A] | ~3.6
COc1c2c(cc3c1-c1c(cc4c(c1OC)OCO4)C[C@H](C)[C@H](C)C3)OCO2 [(−)-schisandrin C] | ~3.5
CC(C)=C[C@@H]1CO[C@]23C[C@]4(CO2)[C@H](CC[C@@H]2[C@@]5(C)CC[C@H](O[C@@H]6OC[C@H](O)[C@H](O[C@@H]7O[C@H](CO)[C@@H](O)[C@H](O)[C@H]7O)[C@H]6O[C@@H]6O[C@@H](CO)[C@H](O)[C@H]6O)C(C)(C)[C@@H]5CC[C@]24C)[C@H]3[C@@]1(C)O [bacopasaponin C] | ~2
CC(C)=C[C@H]1C[C@](C)(O)[C@@H]2[C@H]3CC[C@@H]4[C@@]5(C)CC[C@H](O[C@@H]6OC[C@H](O)[C@H](O[C@@H]7O[C@H](CO)[C@@H](O)[C@H](O)[C@H]7O)[C@H]6O[C@@H]6O[C@@H](CO)[C@H](O)[C@H]6O)C(C)(C)[C@@H]5CC[C@@]4(C)[C@@]34CO[C@@]2(C4)O1 [bacopaside X] | ~2.2
CC(C)=C[C@H]1C[C@](C)(O)[C@H]2[C@H]3CC[C@@H]4[C@@]5(C)CC[C@H](O[C@@H]6O[C@H](CO)[C@@H](O)[C@H](O[C@@H]7O[C@H](CO)[C@@H](O)[C@H](O)[C@H]7O)[C@H]6O[C@@H]6O[C@@H](CO)[C@H](O)[C@H]6O)C(C)(C)[C@@H]5CC[C@@]4(C)[C@@]34CO[C@@]2(C4)O1 [bacoside A3] | ~2.1
CC(C)=CCC[C@](C)(O[C@@H]1O[C@H](CO[C@@H]2O[C@H](CO)[C@@H](O)[C@H](O)[C@H]2O)[C@@H](O)[C@H](O)[C@H]1O)[C@H]1CC[C@]2(C)[C@@H]1[C@H](O)C[C@@H]1[C@@]3(C)CC[C@H](O[C@@H]4O[C@H](CO)[C@@H](O)[C@H](O)[C@H]4O[C@@H]4O[C@H](CO)[C@@H](O)[C@H](O)[C@H]4O)C(C)(C)[C@@H]3CC[C@]12C [ginsenoside rb1] | ~−1
CC(C)=CCC[C@](C)(O[C@@H]1O[C@H](CO)[C@@H](O)[C@H](O)[C@H]1O)[C@H]1CC[C@]2(C)[C@@H]1[C@H](O)C[C@@H]1[C@@]3(C)CC[C@H](O)C(C)(C)[C@@H]3[C@@H](O[C@@H]3O[C@H](CO)[C@@H](O)[C@H](O)[C@H]3O)C[C@]12C [ginsenoside rg1] | ~0.8
COc1ccc(C23C=CC(O)CC2N(C)CC3)cc1OC (stereo not drawn) [mesembrenol] | ~2.4
COc1ccc([C@@]23C=CC(=O)C[C@@H]2N(C)CC3)cc1OC [mesembrenone] | ~1.3
COc1ccc([C@@]23CCC(=O)C[C@@H]2N(C)CC3)cc1OC [mesembrine] | ~1.5
COc1nc2c(c(=O)n1C)n(C)c(=O)n2C [methylliberine] | ~−0.083
CC(=O)OC1C=CC(=O)N(C(=O)CCc2ccccc2)C1 (stereo not drawn) [pipermethystine] | ~1.8
COc1cc([C@H]2Oc3cc(O)c4c(=O)c(O)c(-c5ccc(O)cc5)oc4c3O[C@@H]2CO)ccc1O [rhodiolin] | ~2
OC[C@H]1O[C@@H](OCCc2ccc(O)cc2)[C@H](O)[C@@H](O)[C@@H]1O [rhodosin, salidroside] | ~−1
COc1cc2c(c(OC)c1OC)-c1c(cc(OC)c(OC)c1OC)C[C@](C)(O)[C@@H](C)C2 [schisandrol A] | ~3.4
N#C[C@@]1(O[C@@H]2O[C@H](CO)[C@@H](O)[C@H](O)[C@H]2O)C=C[C@@H](O)C1 [tetraphyllin B] | ~−2.5
(R)-kawain | ~2.7
bacopaside B | ~2.8
hericerin | ~6.4
herinacine A | ~2.5
schisandroside C | ~1.6
tortuosomine | ~3
